Results taken from paper PMC11881906, “Development of xanthone derivatives as effective broad-spectrum antimicrobials: Disrupting cell wall and inhibiting DNA synthesis” (Science Advances, 2025).
Converted amounts (≈) assume the structure as drawn.

Tests used:
[1] = test system: K. pneumonia ATCC 10031; assay: MIC, broth microdilution; assay type: cell-based; conditions: Klebsiella pneumoniae, ATCC10031; 24-hour incubation, MHB
Outline: (§1)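 Run per CLSI guidelines in Mueller-Hinton broth, with compounds tested in twofold dilutions from 0.39 to 100 μg/ml (final DMSO below 0.5%). Bacteria were added at a starting inoculum of 1 × 10^6 cells/ml and incubated 24 h at 37°C. Growth was read as OD600; three independent repeats, each in duplicate.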

[2] = test system: K. pneumonia ATCC 14581; assay: MIC, broth microdilution; assay type: cell-based; conditions: Klebsiella pneumoniae, ATCC14581; 24-hour incubation, MHB
Outline: as §1

[3] = test system: P. aeruginosa ATCC 9027; assay: MIC, broth microdilution; assay type: cell-based; conditions: Pseudomonas aeruginosa, ATCC9027; 24-hour incubation, MHB
Outline: as §1

[4] = test system: S. aureus ATCC 29213; assay: MIC, broth microdilution; assay type: cell-based; conditions: Staphylococcus aureus, ATCC29213, 24 h, 24-hour incubation, MHB; read-out: MIC90 S. aureus ATCC 29213
Outline: as §1

[5] = test system: MRSA N315; assay: MIC, broth microdilution; assay type: cell-based; conditions: Staphylococcus aureus, 24-hour incubation, MHB, read-out: MIC90 MRSA N315
Outline: as §1

[6] = test system: MRSA NCTC 10442; assay: MIC, broth microdilution; assay type: cell-based; conditions: Staphylococcus aureus; 24-hour incubation, MHB; read-out: MIC90 MRSA NCTC 10442
Outline: as §1

[7] = test system: A. baumannii R2889; assay: MIC, broth microdilution; assay type: cell-based; conditions: Acinetobacter baumannii, 24-hour incubation, MHB
Outline: as §1

[8] = test system: P. aeruginosa ATCC 9027; assay: Serial passage resistance induction; assay type: cell-based, Pseudomonas aeruginosa; conditions: 20-day passages at 0.5× MIC
Procedure: The bacteria were grown in a medium containing 0.5× MIC of each compound to prepare the bacterial suspension for the next MIC determination. The MICs were then recorded after incubation at 37°C for 24 hours. Daily passages were continued until the initial MIC increased by more than fourfold. The stability of acquired resistance was investigated by MIC determination and repeated for 20 days.

[9] = test system: E. coli ATCC 25922; assay: DiSC3(5) membrane depolarization assay; assay type: cell-based, Escherichia coli; conditions: 1× to 8× MIC
Procedure: The DiSC3(5) assay was carried out to investigate the cytoplasmic membrane depolarization. Mid-log phase bacteria culture was centrifuged and resuspended in sterile Hepes buffer [5 mM (pH 7.4)] to adjust the concentration of bacterial cells to obtain OD600 of 0.1. The bacterial suspension was then incubated with 2 μM DiSC3(5) for 1 hour without being exposed to the light. The change in fluorescence intensity was monitored by a BioTek multidetector microplate reader with an excitation wavelength of 622 nm and an emission wavelength of 670 nm. […] All measurements were repeated three times with duplicates each time.

[10] = test system: LTA; assay: Fluorescence-based binding assay; conditions: compound 1× MIC; LTA 0 to 2.5 μg/ml
Procedure: Changes in the fluorescence emission spectrum or intensity were assessed for compound XT17 with and without the presence of targeted proteins. The fluorescent properties of compound XT17 (excitation wavelength of 350 nm and emission wavelength of 440 nm) were measured using a fluorescent plate reader upon binding to the targets. LTA-targeted protein concentrations ranged from 0.2 to 6.25 μg/ml, while LPS concentrations ranged from 0.78 to 25 μg/ml. The changes in the emission from a constant concentration of fluorescent compound were monitored after adding increasing concentrations of LTA or LPS. All measurements were repeated three times with duplicates each time.

## CC(C)=CCOc1cc(OCCCNC(=N)N)cc2oc3cc(OCCCNC(=N)N)ccc3c(=O)c12 [XT17]
[1]
  MIC90: 6.25 µg/mL (≈ 12.2 µM)
[2]
  MIC90: 12.5 µg/mL (≈ 24.5 µM)
[3]
  MIC90: 3.12 µg/mL (≈ 6.12 µM)
[4]
  MIC90: 0.39 µg/mL (≈ 0.764 µM)
[5]
  MIC90: 0.39 µg/mL (≈ 0.764 µM)
[6]
  MIC90: 0.39 µg/mL (≈ 0.764 µM)
[7]
  MIC90: 50 µg/mL (≈ 97.9 µM)
[8]
  increase in MIC values during passages: no more than fourfold increase
[9]
  DiSC3(5) fluorescence intensity (membrane depolarization): no changes in fluorescence intensity
[10]
  fluorescence emission of compound upon binding to LTA: decreased in a concentration-dependent manner
